Experimental data published in PMC9944328 (Nature Communications, 2023).
Where two headings read alike, the source gives them in different places.

Tested on: SSTR2 mutants
Experiment: SSTRs Gi-mediated cAMP inhibition, GloSensor, HEK293, 5 μM forskolin, 15 min room temperature (SSTR2 mutants)
Assay type: cell-based, human
Set-up: Best-fit Bottom, cAMP inhibition / Best-fit Top, cAMP inhibition / Span, cAMP inhibition / Bottom (best-fit value) / Top (best-fit value) / Span (best-fit value) / Span (best-fit) / Bottom (best-fit) / Top (best-fit) / Best-fit Bottom / Best-fit Top / Best-fit Span / Top / Span: scale not given here
Protocol: The levels of the intracellular 3′, 5′-cyclic AMP (cAMP) were measured by the GloSensor cAMP assay (Promega) as described in the previous studies[28],[41] which has been widely used. The human full-length SSTRs and mutants were cloned into the pcDNA3.1+ vector with a HA signal sequence followed by a Flag tag at the N-terminus. HEK293 cells (ATCC, CRL-1573) were seeded into 6-well microplates at a density of 1.0 × 10^6 cells/well and cultured for 24 h at 37 °C with 5% CO2. Cells were then co-transfected with SSTR wild-type or mutants and GloSensor plasmids. After 24 h of transfection, the cells were dissociated with TrypLE™ Express Enzyme (1X) (Thermo Fisher Scientific) and collected by centrifugation at 500 × g for 5 min. Then the collected cells were suspended in Hank’s balanced salt solution [HBSS (Thermo Fisher Scientific)] supplemented with […] (YEASEN), and then the suspension cells were seeded into 96-well plates with 90 μl/well. After incubating at room temperature for 40 min, 5 μM forskolin and ligands diluted in HBSS were added to each well and the plates were incubated at room temperature for 15 min. […] were measured using the Synergy H1 microplate reader (BioTek) and the data presented are means of at least three independent experiments.

[1] = cAMP inhibition, SSTR2 F127A-1 (run 1)
[2] = cAMP inhibition, SSTR2 F127A-2 (run 2)
[3] = cAMP inhibition, SSTR2 F127A-3 (run 3)
[4] = cAMP inhibition, SSTR2 F208A-1 (run 1)
[5] = cAMP inhibition, SSTR2 F208A-2 (run 2)
[6] = cAMP inhibition, SSTR2 F208A-3 (run 3)
[7] = cAMP inhibition, SSTR2 I130A-1 (run 1)
[8] = cAMP inhibition, SSTR2 I130A-2 (run 2)
[9] = cAMP inhibition, SSTR2 I130A-3 (run 3)
[10] = cAMP inhibition, SSTR2 Y205A-1 (run 1)
[11] = cAMP inhibition, SSTR2 Y205A-2 (run 2)
[12] = cAMP inhibition, SSTR2 Y205A-3 (run 3)
[13] = cAMP inhibition, SSTR2 T194H, run 1
[14] = cAMP inhibition, SSTR2 T194H, run 2
[15] = cAMP inhibition, SSTR2 T194H, run 3
[16] = cAMP inhibition, SSTR2 T194H, run 4
[17] = cAMP inhibition, SSTR2 V103N, run 1
[18] = cAMP inhibition, SSTR2 V103N, run 2
[19] = cAMP inhibition, SSTR2 V103N, run 3
[20] = cAMP inhibition, SSTR2 V103N, run 4

`C[C@@H](O)[C@@H]1NC(=O)[C@H](CCCCN)NC(=O)[C@@H](Cc2c[nH]c3ccccc23)NC(=O)[C@H](Cc2ccccc2)NC(=O)[C@@H](NC(=O)[C@H](N)Cc2ccccc2)CSSC[C@@H](C(=O)N[C@H](CO)[C@@H](C)O)NC1=O` [octreotide] was tested, and the “Top (best-fit value)” value (W188A-2, run 2) was 109.9, the EC50 (W188A-2, run 2, read-out: EC50 (best-fit value)) was 0.0722 nM and the “Bottom (best-fit value)” value (W188A-3, run 3) was 3.856. For the same compound, the “LogEC50 (best-fit value)” value (W188A-3, run 3) was -9.118, the “Span (best-fit value)” value (W188A-3, run 3) was 88.75 and the “Top (best-fit value)” value (W188A-3, run 3) was 92.61. The EC50 (W188A-3, run 3, read-out: EC50 (best-fit value)) was 0.762 nM, the “Bottom (best-fit)” value (W269A-1) was -8.692 and the “LogEC50 (best-fit)” value (W269A-1) was -8.978. For the same compound, the “Span (best-fit)” value (W269A-1) was 108.2, the “Top (best-fit)” value (W269A-1) was 99.53 and the EC50 (W269A-1, read-out: EC50 (best-fit)) was 1.05 nM. For the same compound, the “Bottom (best-fit)” value (W269A-2) was -48.61, the “LogEC50 (best-fit)” value (W269A-2) was -9.361 and the “Span (best-fit)” value (W269A-2) was 149.9. For the same compound, the “Top (best-fit)” value (W269A-2) was 101.3, the EC50 (W269A-2, read-out: EC50 (best-fit)) was 0.435 nM and the “Bottom (best-fit)” value (W269A-3) was 12.63. For the same compound, the “LogEC50 (best-fit)” value (W269A-3) was -8.938, the “Span (best-fit)” value (W269A-3) was 80.26 and the “Top (best-fit)” value (W269A-3) was 92.88. For the same compound, the EC50 (W269A-3, read-out: EC50 (best-fit)) was 1.15 nM, the “Best-fit Bottom” value (Y302A-1) was -1.091 and the “Best-fit Span” value (Y302A-1) was 74.2. For the same compound, the “Best-fit Top” value (Y302A-1) was 73.11, the LogEC50 (Y302A-1) was -6.976 and the EC50 (Y302A-1, read-out: EC50) was 106 nM. For the same compound, the “Best-fit Bottom” value (Y302A-2) was -6.663, the “Best-fit Span” value (Y302A-2) was 106.6 and the “Best-fit Top” value (Y302A-2) was 99.95. The LogEC50 (Y302A-2) was -7.6, the EC50 (Y302A-2, read-out: EC50) was 25.1 nM and the “Best-fit Bottom” value (Y302A-3) was -0.9588. The “Best-fit Span” value (Y302A-3) was 65.18, the “Best-fit Top” value (Y302A-3) was 64.22 and the LogEC50 (Y302A-3) was -6.976. For the same compound, the “cAMP inhibition potency of mutants” value (alanine replacement of F208, F272, Y302, Q126, D122 in SSTR2) was “significantly decreased the cAMP inhibition potency”, the “Bottom (best-fit value)” value [1] was 3.745 and the “LogEC50 (best-fit value)” value [1] was -9.177. For the same compound, the “Span (best-fit value)” value [1] was 105.4, the “Top (best-fit value)” value [1] was 109.1 and the EC50 (cAMP inhibition, SSTR2 F127A-1 (run 1), read-out: EC50 (best-fit value)) was 0.665 nM. For the same compound, the “Bottom (best-fit value)” value [2] was 6.147, the “LogEC50 (best-fit value)” value [2] was -8.668 and the “Span (best-fit value)” value [2] was 104. The “Top (best-fit value)” value [2] was 110.1, the EC50 (cAMP inhibition, SSTR2 F127A-2 (run 2), read-out: EC50 (best-fit value)) was 2.15 nM and the “Bottom (best-fit value)” value [3] was 2.844. The “LogEC50 (best-fit value)” value [3] was -8.526, the “Span (best-fit value)” value [3] was 104.1 and the “Top (best-fit value)” value [3] was 107. The EC50 (cAMP inhibition, SSTR2 F127A-3 (run 3), read-out: EC50 (best-fit value)) was 2.98 nM, the “Bottom (best-fit value)” value [4] was 10.39 and the “LogEC50 (best-fit value)” value [4] was -7.519. The “Top (best-fit value)” value [4] was 89.25, the EC50 (cAMP inhibition, SSTR2 F208A-1 (run 1), read-out: EC50 (best-fit value)) was 30.3 nM and the “Bottom (best-fit value)” value [5] was -4.181. For the same compound, the “LogEC50 (best-fit value)” value [5] was -7.462, the “Top (best-fit value)” value [5] was 54.09 and the EC50 (cAMP inhibition, SSTR2 F208A-2 (run 2), read-out: EC50 (best-fit value)) was 34.6 nM. The “Bottom (best-fit value)” value [6] was 13.21, the “LogEC50 (best-fit value)” value [6] was -7.519 and the “Top (best-fit value)” value [6] was 113.5. For the same compound, the “Bottom (best-fit value)” value [7] was 14.54, the “LogEC50 (best-fit value)” value [7] was -8.728 and the “Span (best-fit value)” value [7] was 76.49. The “Top (best-fit value)” value [7] was 91.02, the EC50 (cAMP inhibition, SSTR2 I130A-1 (run 1), read-out: EC50 (best-fit value)) was 1.87 nM and the “Bottom (best-fit value)” value [8] was 3.27. For the same compound, the “LogEC50 (best-fit value)” value [8] was -7.739, the “Span (best-fit value)” value [8] was 103.8 and the “Top (best-fit value)” value [8] was 107. For the same compound, the EC50 (cAMP inhibition, SSTR2 I130A-2 (run 2), read-out: EC50 (best-fit value)) was 18.2 nM, the “Bottom (best-fit value)” value [9] was 1.85 and the “LogEC50 (best-fit value)” value [9] was -7.833. The “Span (best-fit value)” value [9] was 103.6, the “Top (best-fit value)” value [9] was 105.4 and the EC50 (cAMP inhibition, SSTR2 I130A-3 (run 3), read-out: EC50 (best-fit value)) was 14.7 nM. For the same compound, the “Bottom (best-fit value)” value [10] was -15.61, the “LogEC50 (best-fit value)” value [10] was -10.22 and the “Span (best-fit value)” value [10] was 114. The “Top (best-fit value)” value [10] was 98.43, the EC50 (cAMP inhibition, SSTR2 Y205A-1 (run 1), read-out: EC50 (best-fit value)) was 0.0606 nM and the “Bottom (best-fit value)” value [11] was -21.77. The “LogEC50 (best-fit value)” value [11] was -10.31, the “Span (best-fit value)” value [11] was 99.08 and the “Top (best-fit value)” value [11] was 77.31. The EC50 (cAMP inhibition, SSTR2 Y205A-2 (run 2), read-out: EC50 (best-fit value)) was 0.0488 nM, the “Bottom (best-fit value)” value [12] was 1.644 and the “LogEC50 (best-fit value)” value [12] was -9.761. The “Span (best-fit value)” value [12] was 161.4, the “Top (best-fit value)” value [12] was 163 and the EC50 (cAMP inhibition, SSTR2 Y205A-3 (run 3), read-out: EC50 (best-fit value)) was 0.173 nM. For the same compound, the “LogEC50 (best-fit)” value [13] was -7.55, the “Top (best-fit)” value [13] was 86.06 and the EC50 (cAMP inhibition, SSTR2 T194H, run 1, read-out: EC50 (best-fit)) was 28.2 nM. The “LogEC50 (best-fit)” value [14] was -7.55, the “Top (best-fit)” value [14] was 86.06 and the EC50 (cAMP inhibition, SSTR2 T194H, run 2, read-out: EC50 (best-fit)) was 28.2 nM. The “LogEC50 (best-fit)” value [15] was -7.274, the “Top (best-fit)” value [15] was 99.32 and the EC50 (cAMP inhibition, SSTR2 T194H, run 3, read-out: EC50 (best-fit)) was 53.2 nM. For the same compound, the “LogEC50 (best-fit)” value [16] was -7.828, the “Top (best-fit)” value [16] was 111.2 and the EC50 (cAMP inhibition, SSTR2 T194H, run 4, read-out: EC50 (best-fit)) was 14.9 nM. The “LogEC50 (best-fit)” value [17] was -9.644, the “Top (best-fit)” value [17] was 94 and the EC50 (cAMP inhibition, SSTR2 V103N, run 1, read-out: EC50 (best-fit)) was 0.227 nM. The “LogEC50 (best-fit)” value [18] was -9.644, the “Top (best-fit)” value [18] was 94 and the EC50 (cAMP inhibition, SSTR2 V103N, run 2, read-out: EC50 (best-fit)) was 0.227 nM. The “LogEC50 (best-fit)” value [19] was -9.75, the “Top (best-fit)” value [19] was 93.06 and the EC50 (cAMP inhibition, SSTR2 V103N, run 3, read-out: EC50 (best-fit)) was 0.178 nM. The “LogEC50 (best-fit)” value [20] was -9.608, the “Top (best-fit)” value [20] was 108.8 and the EC50 (cAMP inhibition, SSTR2 V103N, run 4, read-out: EC50 (best-fit)) was 0.247 nM.
